Measured values reported in paper PMC8025945 (Journal of medicinal chemistry, 2017).

Key:
recombinant Top1 = biological target: T1, recombinant Top1 (Homo sapiens, UniProt P11387); assay: Top1-mediated DNA cleavage assay; type: biochemical; settings: semiquantitative scale relative to 1 μM MJ-III-65 (6) and 1 μM camptothecin (1)
T1 sequence (P11387 1-765): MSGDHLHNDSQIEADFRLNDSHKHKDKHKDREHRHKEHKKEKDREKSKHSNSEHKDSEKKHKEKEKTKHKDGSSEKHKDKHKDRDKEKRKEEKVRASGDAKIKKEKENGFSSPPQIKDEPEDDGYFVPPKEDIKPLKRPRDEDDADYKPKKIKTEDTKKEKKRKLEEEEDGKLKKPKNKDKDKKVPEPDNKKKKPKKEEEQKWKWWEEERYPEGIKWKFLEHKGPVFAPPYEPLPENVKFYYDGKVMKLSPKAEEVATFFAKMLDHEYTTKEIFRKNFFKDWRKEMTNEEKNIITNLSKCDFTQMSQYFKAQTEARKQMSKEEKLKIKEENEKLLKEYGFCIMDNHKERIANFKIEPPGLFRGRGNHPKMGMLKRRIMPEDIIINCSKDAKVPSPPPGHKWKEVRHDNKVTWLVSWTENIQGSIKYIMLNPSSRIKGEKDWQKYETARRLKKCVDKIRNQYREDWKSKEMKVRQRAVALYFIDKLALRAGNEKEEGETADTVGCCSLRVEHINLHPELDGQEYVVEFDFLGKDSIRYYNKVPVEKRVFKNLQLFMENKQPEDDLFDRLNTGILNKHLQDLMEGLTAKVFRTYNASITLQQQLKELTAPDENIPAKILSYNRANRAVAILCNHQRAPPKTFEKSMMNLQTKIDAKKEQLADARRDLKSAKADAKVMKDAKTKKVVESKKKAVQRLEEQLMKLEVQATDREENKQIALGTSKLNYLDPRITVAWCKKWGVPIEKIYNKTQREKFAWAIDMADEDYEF

HOP-62 = settings: human, HOP-62 lung tumor cells
HCT-116 = settings: human, HCT-116 colon tumor cells
OVCAR-3 = settings: human, OVCAR-3 ovarian tumor cells
DU-145 = settings: human, DU-145 prostate tumor cells
[1] = tested on: NCI-60 human tumor cell lines; settings: NCI-60 human tumor cell lines (all cell lines tested)

enzyme inhibitory activity Top1 (compound-induced DNA cleavage score) (recombinant Top1): +++
GI50 (HOP-62): 0.186 µM
GI50 (HCT-116): 0.107 µM
GI50 (OVCAR-3): 0.407 µM
GI50 (DU-145): 0.309 µM
GI50 [1]: 0.229 µM
Structure (SMILES): O=C1c2ccccc2-c2c1c1ccc(Cl)cc1c(=O)n2CCCn1ccnc1 [compound 8]
